Experimental data reported in patent US7176313B2, “Anti acid-fast bacterial agent containing pyridonecarboxylic acids as active ingredient” (Daiichi Pharmaceutical Co., Ltd., priority 2000, dated 2007).
Values after ≈ are worked out from the molar mass of the structure shown.

Assays:
[1] = tested on: Mycobacterium tuberculosis (RFP sensitive); test: Antibacterial activity (MIC) against Mycobacterium tuberculosis (RFP sensitive); assay type: cell-based
M. avium = test: Antibacterial activity (MIC) against M. avium; assay type: cell-based, Mycobacterium avium
Procedure: Antibacterial activity of the compounds of the invention was measured in accordance with the method described in the literature of Antimicrob. […] In the tables, “OFLX” is an abbreviation of “OFLOXAIN”.

M. intracellulare = test: Antibacterial activity (MIC) against M. intracellulare; assay type: cell-based, Mycobacterium intracellulare
Procedure: Antibacterial activity of the compounds of the invention was measured in accordance with the method described in the literature of Antimicrob. Agents and Chemother., 38, 2877 (1994), and the results are shown in Tables 3 to 8 in terms of MIC (μg/ml). In the tables, “OFLX” is an abbreviation of “OFLOXAIN”.

[2] = M. tuberculosis H37Rv, Table 6 (series 2)
[3] = M. tuberculosis Kurono, Table 6 (series 2)
[4] = M. tuberculosis No. 40, Table 6 (series 2)
[5] = M. tuberculosis No. 41, Table 6 (series 2)
[6] = M. tuberculosis No. 43, Table 6 (series 2)
[7] = M. tuberculosis No. 68, Table 6 (series 2)
[8] = M. avium N-357, Table 4 (series 2)
[9] = M. avium N-444, Table 4 (series 2)
[10] = M. avium N-458, Table 4 (series 2)
[11] = M. avium N-472, Table 4 (series 2)
[12] = M. intracellulare N-294, Table 4 (series 2)
[13] = M. intracellulare N-313, Table 4 (series 2)
[14] = M. intracellulare N-338, Table 4 (series 2)
[15] = M. intracellulare N-345, Table 4 (series 2)
[16] = M. tuberculosis Kurono, Table 5
[17] = M. tuberculosis No. 40, Table 5
[18] = M. tuberculosis No. 41, Table 5
[19] = M. tuberculosis No. 43, Table 5
[20] = M. tuberculosis No. 68, Table 5
[21] = M. intracellulare N-294, Table 3
[22] = M. intracellulare N-313, Table 3
[23] = M. intracellulare N-338, Table 3
[24] = M. intracellulare N-345, Table 3

SMILES | MIC [1, 2] [µg/mL] | MIC [1, 3] [µg/mL] | MIC [1, 4] [µg/mL] | MIC [1, 5] [µg/mL] | MIC [1, 6] [µg/mL] | MIC [1, 7] [µg/mL] | MIC ([1]; M. tuberculosis H37Rv, Table 5) [µg/mL] | MIC [1, 16] [µg/mL] | MIC [1, 17] [µg/mL] | MIC [1, 18] [µg/mL] | MIC [1, 19] [µg/mL] | MIC [1, 20] [µg/mL] | MIC (M. avium; M. avium N-357, Table 3) [µg/mL] | MIC (M. avium; M. avium N-444, Table 3) [µg/mL] | MIC (M. avium; M. avium N-458, Table 3) [µg/mL] | MIC (M. avium; M. avium N-472, Table 3) [µg/mL] | MIC (M. intracellulare; [21]) [µg/mL] | MIC (M. intracellulare; [22]) [µg/mL] | MIC (M. intracellulare; [23]) [µg/mL] | MIC (M. intracellulare; [24]) [µg/mL] | other results
CCC1CN(c2c(F)cc3c(=O)c(C(=O)O)cn(C4CC4)c3c2OC)CCN1 (stereo not drawn) [Compd. 17] | 0.12 (≈ 0.308 µM) | 0.12 (≈ 0.308 µM) | 0.12 (≈ 0.308 µM) | 0.06 (≈ 0.154 µM) | 2.0 (≈ 5.14 µM) | 0.25 (≈ 0.642 µM) |  |  |  |  |  |  |  |  |  |  |  |  |  |  | MIC (M. avium; [8]): 1.0 µg/mL (≈ 2.57 µM); MIC (M. avium; [9]): 2.0 µg/mL (≈ 5.14 µM); MIC (M. avium; [10]): 1.0 µg/mL (≈ 2.57 µM); MIC (M. avium; [11]): 8.0 µg/mL (≈ 20.5 µM); MIC (M. intracellulare; [12]): 2.0 µg/mL (≈ 5.14 µM); MIC (M. intracellulare; [13]): 0.25 µg/mL (≈ 0.642 µM); MIC (M. intracellulare; [14]): 1.0 µg/mL (≈ 2.57 µM); MIC (M. intracellulare; [15]): 1.0 µg/mL (≈ 2.57 µM)
NC1CN(c2c(F)cc3c(=O)c(C(=O)O)cn(C4CC4)c3c2Cl)CC12CC2 (stereo not drawn) [Compd. 3] |  |  |  |  |  |  | 0.10 (≈ 0.255 µM) | 0.05 (≈ 0.128 µM) | 0.10 (≈ 0.255 µM) | 0.006 (≈ 0.0153 µM) | 0.78 (≈ 1.99 µM) | 0.10 (≈ 0.255 µM) | 0.39 (≈ 0.995 µM) | 1.56 (≈ 3.98 µM) | 0.78 (≈ 1.99 µM) | 6.25 (≈ 16 µM) | 1.56 (≈ 3.98 µM) | 0.39 (≈ 0.995 µM) | 1.56 (≈ 3.98 µM) | 1.56 (≈ 3.98 µM) | 
Cc1c(N2CC3CCCNC3C2)c(F)cc2c(=O)c(C(=O)O)cn(C3CC3)c12 (stereo not drawn) [Compd. 9] |  |  |  |  |  |  | 0.025 (≈ 0.0649 µM) | 0.013 (≈ 0.0337 µM) | 0.013 (≈ 0.0337 µM) | <0.003 | 0.10 (≈ 0.259 µM) | 0.025 (≈ 0.0649 µM) | 0.10 (≈ 0.259 µM) | 0.10 (≈ 0.259 µM) | 0.10 (≈ 0.259 µM) | 0.78 (≈ 2.02 µM) | 0.39 (≈ 1.01 µM) | 0.10 (≈ 0.259 µM) | 0.39 (≈ 1.01 µM) | 0.39 (≈ 1.01 µM) | 
NC1CN(c2c(F)cc3c(=O)c(C(=O)O)cn([C@@H]4C[C@@H]4F)c3c2Cl)CC12CC2 (stereo partly drawn) [Compd. 4] |  |  |  |  |  |  | 0.025 (≈ 0.061 µM) | 0.013 (≈ 0.0317 µM) | 0.025 (≈ 0.061 µM) | <0.003 | 0.20 (≈ 0.488 µM) | 0.025 (≈ 0.061 µM) | 0.20 (≈ 0.488 µM) | 0.78 (≈ 1.9 µM) | 0.39 (≈ 0.952 µM) | 1.56 (≈ 3.81 µM) | 1.56 (≈ 3.81 µM) | 0.39 (≈ 0.952 µM) | 1.56 (≈ 3.81 µM) | 3.13 (≈ 7.64 µM) | 
CCC1CN(c2c(F)cc3c(=O)c(C(=O)O)cn(C4CC4F)c3c2OC)CCN1 (stereo not drawn) [Compd. 18] | 0.12 (≈ 0.295 µM) | 0.12 (≈ 0.295 µM) | 0.12 (≈ 0.295 µM) | 0.06 (≈ 0.147 µM) | 1.0 (≈ 2.45 µM) | 0.25 (≈ 0.614 µM) |  |  |  |  |  |  |  |  |  |  |  |  |  |  | MIC (M. avium; [8]): 0.50 µg/mL (≈ 1.23 µM); MIC (M. avium; [9]): 2.0 µg/mL (≈ 4.91 µM); MIC (M. avium; [10]): 1.0 µg/mL (≈ 2.45 µM); MIC (M. avium; [11]): 8.0 µg/mL (≈ 19.6 µM); MIC (M. intracellulare; [12]): 2.0 µg/mL (≈ 4.91 µM); MIC (M. intracellulare; [13]): 0.25 µg/mL (≈ 0.614 µM); MIC (M. intracellulare; [14]): 0.50 µg/mL (≈ 1.23 µM); MIC (M. intracellulare; [15]): 0.50 µg/mL (≈ 1.23 µM)
Cc1c(N2CC(N)C3(CC3)C2)c(F)cc2c(=O)c(C(=O)O)cn([C@@H]3C[C@@H]3F)c12 (stereo partly drawn) [Compd. 12] |  |  |  |  |  |  | 0.025 (≈ 0.0642 µM) | 0.025 (≈ 0.0642 µM) | 0.025 (≈ 0.0642 µM) | 0.006 (≈ 0.0154 µM) | 0.10 (≈ 0.257 µM) | 0.05 (≈ 0.128 µM) | 0.20 (≈ 0.514 µM) | 0.39 (≈ 1 µM) | 0.39 (≈ 1 µM) | 1.56 (≈ 4.01 µM) | 0.78 (≈ 2 µM) | 0.20 (≈ 0.514 µM) | 0.39 (≈ 1 µM) | 0.39 (≈ 1 µM) | 
